Laboratory results published in article PMC3733081 (Journal of chemical information and modeling, 2013).
Like-named read-outs stand apart in the source and are kept apart here.

Tests used:
[1] = n-hexadecane/water; conditions: for P (n-hexadecane/water partition coefficient): shake-flask, P=l1/l2, ± error
[2] = n-hexadecane/1-octanol; conditions: for logP C16/O: calculated as logPC16/W-logPO/W
[3] = value without superscript a: measured and listed in Table S1; cited from earlier work
[4] = value without superscript b; ref ClogP database; cited from earlier work
[5] = 25 °C, shaking at 25 rpm, fit of eqs 1 and 2

Structure (SMILES) | l1 (rate parameter of transport from water to C16) [1, 5] | l2 (rate parameter of transport from C16 to water) [1, 5] | logP C16/O [2] | P (n-hexadecane/water partition coefficient) ([1]; 25 °C) | other results
c1ccc2ncccc2c1 [quinoline] | (3.766±0.198)×10^−1 cm/h | (3.566±1.200)×10^−2 cm/h | – | – | –
NCCc1c2ccccc2cc2ccccc12 [9-anthracene-ethanamine] | – | – | −1.549 | – | –
Nc1ccccc1 [aniline] | (1.502±0.286)×10^−1 cm/h | (1.912±0.162)×10^−1 cm/h | – | (7.860±1.639)×10^−1 | –
Nc1cccc(Br)c1 [3-bromoaniline] | (6.304±0.471)×10^−1 cm/h | (5.693±0.339)×10^−2 cm/h | – | (1.107±0.106)×10^1 | –
CCC(O)c1ccccc1 (stereo not shown) [1-phenyl-1-propanol] | (3.864±0.154)×10^−1 cm/h | (1.226±0.240)×10^−1 cm/h | – | 3.153±0.630 | –
c1ccc2[nH]ccc2c1 [indole] | (6.291±0.522)×10^−1 cm/h | (1.111±0.083)×10^−1 cm/h | −0.920 | 5.660±0.633 | –
CNC(=O)c1ccccc1 [N-methylbenzamide] | (4.982±0.860)×10^−1 cm/h | (7.724±0.467)×10^−1 cm/h | – | (6.450±1.180)×10^−1 | –
c1ccncc1 [pyridine] | – | – | – | – | l1 (rate parameter of transport from water to C16) [1]: (9.512±0.343)×10^−2 cm/h; l2 (rate parameter of transport from C16 to water) [1]: (2.672±0.669)×10^−1 cm/h
CC(C)c1c(O)ccc2c1CC[C@H]1C(C)(C)CCC[C@]21C [totarol] | – | – | −0.924 | – | –
COc1ccccc1OC [1,2-dimethoxybenzene] | 1.171 ± 0.535 cm/h | (4.301±0.840)×10^−2 cm/h | – | (2.723±1.352) ×10^1 | –
Cc1ccc(C=CC=CC=Cc2ccccc2)cc1 [1-methyl-4-(6-phenyl-1,3,5-hexatrien-1-yl)-benzene] | – | – | 0.193 | – | –
CCCCCO [1-pentanol] | – | – | −1.745 | – | –
CN[C@@H](C)[C@H](O)c1ccccc1 [ephedrine, reference compound] | – | – | −1.770 | – | logP C16/W [3]: −0.840
Cn1c2ccccc2c2ccccc21 [N-methylcarbazole] | – | – | 0.799 | – | logP O/W [4]: 3.990
CCc1ccccc1 [ethylbenzene] | – | – | 0.050 | – | –
OCc1ccccc1 [benzylalcohol] | – | – | −1.530 | – | logP C16/W [3]: −0.430
O=[N+]([O-])c1ccccc1 [nitrobenzene] | – | – | – | – | l1 (rate parameter of transport from water to C16) [1]: 1.162 ± 0.218 cm/h; l2 (rate parameter of transport from C16 to water) [1]: (3.950±0.694)×10^−2 cm/h
c1ccc2c(c1)[nH]c1ccccc12 [9H-carbazole] | – | – | −0.851 | – | –
O=C(O)Cc1c2ccccc2cc2ccccc12 [9-anthracene-acetic acid] | – | – | −2.570 | – | –
FC(F)OC(Cl)C(F)(F)F (stereo not shown) [isofluorane, reference compound] | – | – | −0.410 | – | –
C(=CC=Cc1ccccc1)C=Cc1ccccc1 [1,6-diphenyl-1,3,5-hexatriene] | – | – | 0.188 | – | –
CCOC(=O)c1ccc(N)cc1 [benzocaine, reference compound] | (1.163±0.488)×10^−1 cm/h | (7.455±0.577)×10^−2 cm/h | – | 1.560±0.666 | –
CCOC(=O)c1cccnc1 [ethylnicotinate] | (5.074±1.031)×10^−1 cm/h | (1.416±0.261)×10^−1 cm/h | – | 3.583±0.983 | –
Cn1c(=O)c2c(ncn2C)n(C)c1=O [caffeine, reference compound] | (5.485±0.851)×10^−2 cm/h | (2.309±0.430)×10^−1 cm/h | – | – | –
O=C(O)CCCCCCCCCCn1c2ccccc2c2ccccc21 [11-(9-carbazole)-undecanoic acid] | – | – | −1.418 | – | –
C1=Cc2ccccc2C1 [1H-indene] | – | – | −0.078 | – | logP O/W [4]: 2.920

Structure (SMILES) | l1 (rate parameter of transport from water to C16) [1, 5] | l2 (rate parameter of transport from C16 to water) [1, 5] | logP C16/O [2] | P (n-hexadecane/water partition coefficient) ([1]; 25 °C) | other results
O=C(c1ccccc1)c1ccc(Br)cc1 [4-bromobenzophenone] | (1.054±0.026)×10^1 cm/h | (3.646±0.858)×10^−2 cm/h | – | (2.891±0.684)×10^2 | –
OCc1c2ccccc2cc2ccccc12 [9-anthracenemethanol] | 1.565 ± 0.236 cm/h | (7.080±1.416)×10^−3 cm/h | −0.700 | (2.211±0.554)×10^2 | logP O/W [4]: 3.040
Nc1ccc([N+](=O)[O-])cc1 [4-nitroaniline] | (1.192±0.406)×10^−1 cm/h | (6.295±0.407)×10^−1 cm/h | – | (1.890±0.656)×10^−1 | –
Cc1ccc(Cl)cc1[N+](=O)[O-] [4-chloro-2-nitrotoluene] | (2.168±0.605)×10^2 cm/h | (2.504±0.899)×10^−1 cm/h | – | (8.660±3.938)×10^2 | –
Cn1ccc2ccccc21 [N-methylindole] | – | – | 0.969 | – | –
O=C=O [carbon dioxide] | – | – | – | – | affinity for n-hexadecane versus 1-octanol (logPC16/W vs logPO/W, Figure 1) ([2]; small molecules plotted as crosses in Figure 1): not observed
CCCCCCCCCC [n-decane] | – | – | 1.030 | – | logP C16/W [3]: 7.010
CCCCCCCO [1-heptanol] | – | – | −1.655 | – | –
CCCCCc1cc(OC)c2c(c1)OC(C)(C)C1CC=C(C)CC21 (stereo not shown) [methoxy-Δ8-tetrahydrocannabinol] | – | – | 0.027 | – | logP O/W [4]: 8.060
C=CCc1ccccc1O [2-allylphenol] | (2.286±0.857)×10^−1 cm/h | (3.211±0.685)×10^−2 cm/h | – | – | –
CC(=O)Nc1ccccc1 [acetanilide] | (1.315±0.434)×10^−1 cm/h | (5.104±0.179)×10^−1 cm/h | – | (2.580±0.857)×10^−1 | –
NC(=O)Cc1ccccc1 [2-phenylacetamide] | (1.624±0.359)×10^−2 cm/h | (2.771±0.857)×10^−1 cm/h | – | – | –
O=C(c1ccccc1)c1ccc(Cl)cc1 [4-chlorobenzophenone] | (1.102±0.216)×10^2 cm/h | (1.507±0.465)×10^−1 cm/h | – | (7.315±2.674)×10^2 | –
Cc1c2ccccc2cc2ccccc12 [9-methylanthracene] | – | – | −0.015 | – | logP O/W [4]: 5.070
O=C(O)CCCc1c[nH]c2ccccc12 [1H-indole-3-butanoic acid] | – | – | −3.531 | – | –
Cc1c[nH]c2ccccc12 [3-methylindole] | – | – | −1.360 | – | logP C16/W [3]: 0.810
CC(C)(c1ccc(O)cc1)c1ccc(O)cc1 [bisphenol A] | – | – | −4.222 | – | logP C16/W [3]: −0.902
CC(C)(C)CC(C)(C)c1ccc(O)cc1 [4-tert-octylphenol] | – | – | −1.665 | – | –
CCCCCc1cc(O)c2c(c1)OC(C)(C)[C@@H]1CC=C(C)C[C@@H]21 [Δ8-tetrahydrocannabinol] | – | – | −2.139 | – | logP O/W [4]: 7.410
FC(F)(F)C(Cl)Br (stereo not shown) [halothane, reference compound] | – | – | −0.200 | – | logP C16/W [3]: 2.100
CCCCCCCCO [1-octanol] | – | – | −1.310 | – | –
FC1(F)CCC1(F)Cl (stereo not shown) [1-chloro-1,2,2-trifluorocyclobutane] | – | – | 1.436 | – | –
O=CNc1ccccc1 [formanilide] | (1.532±0.501)×10^−1 cm/h | (5.283±0.213)×10^−1 cm/h | – | 2.900±0.955)×10^−1 | –
O=C(O)CCc1ccc(C=CC=CC=Cc2ccccc2)cc1 [4-(6-phenyl-1,3,5-hexatrien-1-yl)-benzenepropanoic acid] | – | – | −2.702 | – | –
Cc1cc(O)ccc1Cl [4-chloro-3-methylphenol] | (1.491±0.611)×10^−1 cm/h | (9.029±1.001)×10^−2 cm/h | – | 1.651±0.701 | –
Oc1ccccc1-c1ccccc1 [2-phenylphenol] | (3.699±0.935)×10^−1 cm/h | (1.046±0.291)×10^−2 cm/h | – | (3.536±1.329)×10^1 | –
